In general, Ki refers to a measure of affinity in units of concentration, obtained from inhibition or displacement. The term melting point denotes the temperature of the solid-liquid transition. The EC50 is the concentration needed to bring the measured effect to its halfway point.

The values that follow come from PMC10343475, “Systematic Modification of the Substitution Pattern of the 7-Hydroxy-5-oxopyrazolo[4,3-b]pyridine-6-carboxamide Scaffold Enabled the Discovery of New Ligands with High Affinity and Selectivity for the Cannabinoid Type 2 Receptor” (Molecules, 2023).

Series [1] is described as follows: Dissolution of 63-salts in 0.9% NaCl solution (LC-MS/MS). Type of series: physicochemical. The source says: [63^−] = 9.81 × 10^−7 mol^2/L^2. […] However, starting from the cesium salt, the concentration of drug dissolved in the physiological solution maintained high values for at least one hour (around 50 × 10^−6 mol/L, with a peak higher than 100 × 10^−6 mol/L) and, for a further two hours, these values were higher than those obtained with the sodium salt. From this, it can be deduced that the 63-cesium salt would be very suitable for the extemporaneous preparation of injectable solutions in the presence of high concentrations of sodium ions.
An excess amount (~4 to 5 mg) of each salt of compound 63 was added to 5 mL of a 0.9% NaCl solution, kept under constant agitation, and thermostated at room temperature (21 ± 2 °C). At fixed time points, an aliquot was withdrawn from the solution, and centrifuged (3000 g, 10 min, RT) to separate undissolved compound and the supernatant, after dilution with MeOH, was analyzed by LC-MS/MS. An Accela UHPLC system coupled with a TSQ Quantum Access Max triple quad mass spectrometer (Thermo Fisher, Waltham, MA, USA), was employed to quantify dissolved 63 over time. UHPLC separation occurred by gradient elution, employing a Synergy Fusion C18 80Å RP-column (2.0 × 100 mm, 4 µm; Phenomenex, Bologna, Italy). Mobile phases A and B were acetonitrile and water, both with 0.1% v/v formic acid added. The following elution conditions were employed: linear gradient from 60 to 95%A in 5 min; 95% A between 5 and 8 min, returning to 60% A in 0.5 min with 2.5 min reconditioning time. Total run time: 11 min. The flow rate was 0.35 mL/min and injection volume was 10 µL. Heated electrospray (H-ESI) ion source voltage was set at 4.0 KV; capillary temperature at 270 °C. Nitrogen served both as sheath and auxiliary gas at 35 psi and 15 psi, respectively. Argon at a pressure of 1.5 mtorr was employed as collision gas. H-ESI ion source operated in positive ion mode (ESI+) and acquisition occurred in multiple reaction monitoring (MRM). Tube lens voltages (TL) and collision energies (CE) for each parent-product ion transition were optimized by flow injection analysis of 5 µM solutions of each standard in MeOH. Compound 63: m/z = 399.2 [M+H]^+ → m/z = 135.1, 107.1, 93.1 (TL = 98 V; CE = 20, 33, 37 eV, respectively). Its 1-hydroxy derivative, compound 4-(1-butyl)-4,5-dihydro-7-hydroxy-N-(1-hydroxyadamantan-3-yl)-2-methyl-5-oxo-2H-pyrazolo[4,3-b]pyridine-6-carboxamide, was employed as Internal Standard: m/z = 415.2 [M+H]^+ → m/z = 266.1, 248.1 (TL = 99 V; CE = 14, 31 eV). Calibration curves were prepared in MeOH in the 1000–10 nM concentration range starting and coefficients of determination of regression models were >0.99. Xcalibur software version 2.2 (Thermo Fisher Scientific, Inc., Waltham, MA, USA) was employed for both data acquisition and processing. […]

Series [2] concerns the target T1, human CB2 receptor (Homo sapiens, UniProt P34972). The conditions noted are these: Figure 1, earlier ligands of the group; cited from earlier work.
The target in series [3] is human recombinant CB1 receptor (Homo sapiens, UniProt P21554). The series is described as follows: Competition binding assay, displacement of [3H]-CP-55,940, CB1R. The procedure: (§1) Binding at equilibrium was performed as previously reported. […] All compounds were tested following the procedure described by the manufacturer (Perkin Elmer, Italy). […] Ki values were calculated by applying the Cheng–Prusoff equation to the IC50 values (obtained by GraphPad) for the displacement of the bound radioligand by increasing concentrations of the test compound.

Series [4] addresses T1, human CB2 receptor. The series can be described thus: cAMP Hunter functional assay in NKH-477-stimulated CHO-K1 cells overexpressing CB2R. To be noted: for Functional behavior at CB2R: agonist mode / antagonist mode with JWH-133 4 µM challenge.
For series [5], the target named is T1, human CB2 receptor. The series can be described thus: Competition binding assay, displacement of [3H]-CP-55,940, CB2R. More on the design: logKiCB2 (nM) Exp.: unit not given here. The procedure: as §1
On the technique in general: Displacement assays read how much labelled ligand stays bound in the presence of the test substance.

[6] abbreviates: membranes from HEK cells, [3H]CP-55,940, mean ± SD, at least three experiments in duplicate, read-out: CB1R Ki.
The mark [7] stands for this setting: CB2R Ki, membranes from HEK cells, [3H]CP-55,940, mean ± SD, at least three experiments in duplicate.

“And” between values parts separate entries of the source, which are not always exact repeats. Identical values can stand only once. Like-named read-outs stand apart in the source and are kept apart here. Some results are limits rather than exact numbers.

T1 sequence (P34972 whole entry): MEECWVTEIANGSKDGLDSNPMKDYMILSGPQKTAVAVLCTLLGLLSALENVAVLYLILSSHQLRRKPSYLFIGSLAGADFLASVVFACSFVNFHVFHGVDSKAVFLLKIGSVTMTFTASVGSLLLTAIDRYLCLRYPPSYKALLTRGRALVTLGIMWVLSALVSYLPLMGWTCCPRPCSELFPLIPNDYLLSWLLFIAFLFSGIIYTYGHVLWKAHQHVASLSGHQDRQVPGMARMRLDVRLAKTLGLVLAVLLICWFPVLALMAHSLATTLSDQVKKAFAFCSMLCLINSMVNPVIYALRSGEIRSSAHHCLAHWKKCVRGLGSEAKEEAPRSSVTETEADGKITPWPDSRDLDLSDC
Sequence of human recombinant CB1 receptor (P21554 whole entry): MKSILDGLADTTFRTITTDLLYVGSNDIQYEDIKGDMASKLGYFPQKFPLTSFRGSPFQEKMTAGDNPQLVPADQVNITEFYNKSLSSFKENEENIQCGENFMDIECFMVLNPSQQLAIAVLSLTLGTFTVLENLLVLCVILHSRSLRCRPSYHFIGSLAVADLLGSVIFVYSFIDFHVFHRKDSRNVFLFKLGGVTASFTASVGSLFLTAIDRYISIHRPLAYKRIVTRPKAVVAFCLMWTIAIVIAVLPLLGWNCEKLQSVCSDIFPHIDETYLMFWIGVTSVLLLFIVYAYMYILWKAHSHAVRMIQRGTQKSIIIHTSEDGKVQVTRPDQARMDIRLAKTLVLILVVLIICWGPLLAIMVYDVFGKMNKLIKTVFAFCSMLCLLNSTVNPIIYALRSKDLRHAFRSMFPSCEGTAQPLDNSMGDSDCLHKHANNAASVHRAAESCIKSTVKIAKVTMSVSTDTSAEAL

In the case of `CCCCn1c(=O)c(C(=O)NC23CC4CC(CC(C4)C2)C3)c(O)c2nn(C)cc21.[Cs]` [63-cesium salt, N-(Adamantan-1-yl)-4-(1-butyl)-7-hydroxy-2-methyl-5-oxo-4,5-dihydro-2H-pyrazolo[4,3-b]pyridine-6-carboxamide Cesium Salt], in series [1] (0.9% NaCl), the “Concentration of dissolved 63 maintained for at least one hour” value is on record as “around 50 × 10^−6 mol/L”, the “Peak concentration of dissolved 63” value is reported as “higher than 100 × 10^−6 mol/L” and the “Time to decrease to the value consistent with the Ks of the sodium salt” value was 200 min.

Regarding `CCCCn1c(=O)c(C(=O)NC23CC4CC(CC(C4)C2)C3)c(O)c2nn(C)cc21.[Na]` [63-sodium salt, N-(Adamantan-1-yl)-4-(1-butyl)-7-hydroxy-2-methyl-5-oxo-4,5-dihydro-2H-pyrazolo[4,3-b]pyridine-6-carboxamide Sodium Salt], the “Concentration of dissolved 63, average over time points” value in series [1] (excess salt in 0.9% NaCl, room temperature) was found to be 6.37 µM.

For `CCCCCn1c(=O)c(C(=O)NC23CC4CC(CC(C4)C2)C3)c(O)c2nn(C)cc21` [Compound 3, reference compound], the “Selectivity Index” value on human CB2 receptor [2] is reported as 167.

With `CCCCn1c(=O)c(C(=O)NC2CCCc3ccccc32)c(O)c2nn(C)cc21` (stereo not shown) [Compound 18, 4-(1-Butyl)-7-hydroxy-2-methyl-5-oxo-N-(1,2,3,4-tetrahydronaphthalen-1-yl)-4,5-dihydro-2H-pyrazolo[4,3-b]pyridine-6-carboxamide], the inhibitory constant (Ki) is over 10000 nM in series [3] (setting [6]); < 20 nM and 17.3 nM at human CB2 receptor [5] (setting [7]); 24 nM at human CB2 receptor [5] (logKiCB2 (nM) Exp., log of experimental Ki). Besides, the “Functional behavior at CB2R” value at human CB2 receptor [4] is given as “antagonist/inverse agonist behavior”. For the same molecule, the “SI (selectivity index for CB2R, Ki(CB1R)/Ki(CB2R))” value at human CB2 receptor [5] was over 578.

`Cn1cc2c(n1)c(O)c(C(=O)NC13CC4CC(CC(C4)C1)C3)c(=O)n2Cc1ccccc1` [Compound 26, N-(Adamantan-1-yl)-4-benzyl-7-hydroxy-2-methyl-5-oxo-4,5-dihydro-2H-pyrazolo[4,3-b]pyridine-6-carboxamide] yielded a melting point of 180 to 183 °C. For the same molecule, the “Functional behavior at CB2R” value on human CB2 receptor [4] is reported as “antagonist/inverse agonist behavior”. The Ki on human CB2 receptor [5] (setting [7]) was < 20 nM and 0.48 nM.

As to `CCCCn1c(=O)c(C(=O)NC23CC4CC(CC(C4)C2)C3)c(O)c2nn(CC)cc21` [Compound 35, N-(Adamantan-1-yl)-4-(1-butyl)-2-ethyl-7-hydroxy-5-oxo-4,5-dihydro-2H-pyrazolo[4,3-b]pyridine-6-carboxamide], the inhibitory constant (Ki) in series [3] (setting [6]) is 102 ± 15.2 nM; on human CB2 receptor [5] (setting [7]) it was < 20 nM and 0.45 nM. For the same molecule, the “Functional behavior at CB2R” value on human CB2 receptor [4] is given as “antagonist/inverse agonist behavior”. Further, the “SI (selectivity index for CB2R, Ki(CB1R)/Ki(CB2R))” value at human CB2 receptor [5] amounted to 227. Also, the “logKiCB2 (nM) Exp.” value on human CB2 receptor [5] (log of experimental Ki) is listed as −0.35.

As for `CCCCCn1c(=O)c(C(=O)NC23CC4CC(CC(C4)C2)C3)c(O)c2nn(C)c(C)c21` [Compound 55, N-(Adamantan-1-yl)-7-hydroxy-2,3-dimethyl-5-oxo-4-(1-pentyl)-4,5-dihydro-2H-pyrazolo[4,3-b]pyridine-6-carboxamide], the melting point came to 67 °C. In addition, the “CB1 receptor activity in words” value in series [3] is reported as “not active at all”. In series [3] (setting [6]), the Ki was over 10000 nM. Besides, the “Functional behavior at CB2R” value at human CB2 receptor [4] was “antagonist/inverse agonist behavior”. Also, the Ki on human CB2 receptor [5] (setting [7]) is < 20 nM and 2.11 nM. The “logKiCB2 (nM) Exp.” value at human CB2 receptor [5] (log of experimental Ki) is given as 0.32.

For `CC(C)n1c(=O)c(C(=O)NC23CC4CC(CC(C4)C2)C3)c(O)c2c1cnn2C` [Compound 57], the Ki is over 10000 nM in series [3] and 54.3 ± 12.3 nM on human CB2 receptor [5] (setting [7]). This molecule had an EC50 on human CB2 receptor [4] of 1590 nM. For the same molecule, the “Functional behavior at CB2R” value on human CB2 receptor [4] is “typical agonist behavior”. At human CB2 receptor [4] (agonist mode, 25 µM NKH477), this molecule came in with an Emax of 84.05. Besides, the “SI (selectivity index for CB2R, Ki(CB1R)/Ki(CB2R))” value on human CB2 receptor [5] was over 184. For the same molecule, on human CB2 receptor [5] (log of experimental Ki), the “logKiCB2 (nM) Exp.” value amounted to 1.73.
